Measurements published in ChEMBL document CHEMBL2074471, “Electrogenic properties and substrate specificity of the polyspecific rat cation transporter rOCT1” (J Biol Chem, 1996).

T1: Solute carrier family 22 member 1 (Rattus norvegicus, UniProt Q63089)
T1 sequence (Q63089 whole entry): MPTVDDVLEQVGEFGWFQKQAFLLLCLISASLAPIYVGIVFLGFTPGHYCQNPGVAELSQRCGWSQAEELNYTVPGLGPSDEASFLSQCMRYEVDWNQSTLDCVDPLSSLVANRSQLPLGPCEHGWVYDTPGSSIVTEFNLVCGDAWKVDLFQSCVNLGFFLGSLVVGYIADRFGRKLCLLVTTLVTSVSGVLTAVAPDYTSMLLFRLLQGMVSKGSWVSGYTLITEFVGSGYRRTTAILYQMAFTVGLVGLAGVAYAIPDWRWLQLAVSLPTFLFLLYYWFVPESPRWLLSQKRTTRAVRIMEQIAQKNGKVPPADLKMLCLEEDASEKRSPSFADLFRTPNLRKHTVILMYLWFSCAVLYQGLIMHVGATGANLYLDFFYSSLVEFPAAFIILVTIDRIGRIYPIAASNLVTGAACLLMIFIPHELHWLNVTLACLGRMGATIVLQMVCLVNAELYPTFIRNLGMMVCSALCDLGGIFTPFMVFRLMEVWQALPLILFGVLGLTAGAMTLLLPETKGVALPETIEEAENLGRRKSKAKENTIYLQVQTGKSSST


How the values were obtained:
[1] = target: T1, Solute carrier family 22 member 1; experiment: TP_TRANSPORTER: uptake (electrogenesis) in Xenopus laevis oocytes; assay type: functional, cell-based; conditions: oocyte
[2] = substrate: CC[N+](CC)(CC)CC; experiment: cells, lysate or membranes named
[3] = substrate: CNC(=O)c1cccnc1; experiment: (§1) TP_TRANSPORTER: uptake in Xenopus laevis oocytes; assay type: functional, cell-based, Oocyte
[4] = substrate: C[n+]1ccc(-c2ccccc2)cc1; experiment: as §1; assay type: functional, cell-based, Oocyte

Molecule	Activity [1]	Km [2]	Km [3]	Km [4]
CC[n+]1c(CC2C=C(C)N=C(c3ccccc3)N2C)ccc2ccccc21.[Cl-] (configuration not stated) [Cyanine-863]	substrate [+]	–	–	–
CC(=O)O[C@H]1C[C@@H]2CC[C@@H]3[C@H](CC[C@@]4(C)[C@H]3C[C@H]([N+]3(C)CCCCC3)[C@@H]4OC(C)=O)[C@@]2(C)C[C@@H]1[N+]1(C)CCCCC1 [PANCURONIUM]	substrate [+]	–	–	–
NCCCCNCCCN [SPERMIDINE]	substrate [+]	–	–	–
NCCCNCCCCNCCCN [SPERMINE]	substrate [+]	–	–	–
Solute carrier family 22 member 1 (Rattus norvegicus) (protein) MPTVDDVLEQVGEFGWFQKQAFLLLCLISASLAPIYVGIVFLGFTPGHYCQNPGVAELSQRCGWSQAEELNYTVPGLGPSDEASFLSQCMRYEVDWNQSTLDCVDPLSSLVANRSQLPLGPCEHGWVYDTPGSSIVTEFNLVCGDAWKVDLFQSCVNLGFFLGSLVVGYIADRFGRKLCLLVTTLVTSVSGVLTAVAPDYTSMLLFRLLQGMVSKGSWVSGYTLITEFVGSGYRRTTAILYQMAFTVGLVGLAGVAYAIPDWRWLQLAVSLPTFLFLLYYWFVPESPRWLLSQKRTTRAVRIMEQIAQKNGKVPPADLKMLCLEEDASEKRSPSFADLFRTPNLRKHTVILMYLWFSCAVLYQGLIMHVGATGANLYLDFFYSSLVEFPAAFIILVTIDRIGRIYPIAASNLVTGAACLLMIFIPHELHWLNVTLACLGRMGATIVLQMVCLVNAELYPTFIRNLGMMVCSALCDLGGIFTPFMVFRLMEVWQALPLILFGVLGLTAGAMTLLLPETKGVALPETIEEAENLGRRKSKAKENTIYLQVQTGKSSST	–	35 µM	340 µM	9.6 µM
